Data taken from US10870647B2, “Imidazopyridine derivative, method for preparing same, and pharmaceutical composition containing same as active ingredient for preventing or treating cancer” (DAEGU-GYEONGBUK MEDICAL INNOVATION FOUNDATION, priority 2016, dated 2020).

Assays:
Experiment in all cases: Kinase selectivity, scanMAX Kinase assay panel (DiscoverX), % control at 1 uM
Type in all cases: binding
[1] = target: T1, scanMAX Kinase assay panel (Homo sapiens, UniProt Q9BWU1); details: CDK11; 1 uM; read-out: Percent Control (%)
T1 construct: purchased DiscoverX
Method in brief: (§1)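 1 uM cpd (DMSO) per kinase; % ctrl = [cpd − pos ctrl]/[neg ctrl − pos ctrl] × 100; hit if <35.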

[2] = target: T2, scanMAX Kinase assay panel (Homo sapiens, UniProt Q9UIK4); details: DAPK2; 1 uM; read-out: Percent Control (%)
T2 construct: purchased DiscoverX
Method in brief: as §1

[3] = target: T3, scanMAX Kinase assay panel (Homo sapiens, UniProt Q8TF76); details: HASPIN; 1 uM; read-out: Percent Control (%)
T3 construct: purchased DiscoverX
T3 sequence (Q8TF76 1-798): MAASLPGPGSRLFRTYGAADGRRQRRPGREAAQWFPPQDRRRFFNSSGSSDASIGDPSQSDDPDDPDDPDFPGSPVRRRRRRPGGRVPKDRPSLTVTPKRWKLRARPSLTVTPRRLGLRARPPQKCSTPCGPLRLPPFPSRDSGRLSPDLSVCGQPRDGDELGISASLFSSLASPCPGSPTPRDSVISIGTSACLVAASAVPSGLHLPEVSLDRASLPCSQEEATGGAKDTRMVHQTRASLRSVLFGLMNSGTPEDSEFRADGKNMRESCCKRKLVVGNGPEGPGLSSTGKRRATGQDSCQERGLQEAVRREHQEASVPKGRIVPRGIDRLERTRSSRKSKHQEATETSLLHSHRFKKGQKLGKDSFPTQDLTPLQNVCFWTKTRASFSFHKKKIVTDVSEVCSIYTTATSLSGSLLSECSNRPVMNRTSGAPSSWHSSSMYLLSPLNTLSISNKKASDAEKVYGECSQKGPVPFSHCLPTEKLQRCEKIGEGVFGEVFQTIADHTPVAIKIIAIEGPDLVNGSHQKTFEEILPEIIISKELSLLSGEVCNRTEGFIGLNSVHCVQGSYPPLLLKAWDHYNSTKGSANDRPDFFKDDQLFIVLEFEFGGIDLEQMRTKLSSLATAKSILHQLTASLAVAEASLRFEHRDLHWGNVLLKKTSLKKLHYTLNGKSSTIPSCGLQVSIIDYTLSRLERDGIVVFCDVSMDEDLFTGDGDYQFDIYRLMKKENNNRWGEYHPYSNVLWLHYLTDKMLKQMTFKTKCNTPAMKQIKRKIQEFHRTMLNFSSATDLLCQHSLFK
Method in brief: as §1

[4] = target: T4, scanMAX Kinase assay panel (Homo sapiens, UniProt Q8WXR4); details: MYO3B; 1 uM; read-out: Percent Control (%)
T4 construct: purchased DiscoverX
T4 sequence (Q8WXR4 1-1341): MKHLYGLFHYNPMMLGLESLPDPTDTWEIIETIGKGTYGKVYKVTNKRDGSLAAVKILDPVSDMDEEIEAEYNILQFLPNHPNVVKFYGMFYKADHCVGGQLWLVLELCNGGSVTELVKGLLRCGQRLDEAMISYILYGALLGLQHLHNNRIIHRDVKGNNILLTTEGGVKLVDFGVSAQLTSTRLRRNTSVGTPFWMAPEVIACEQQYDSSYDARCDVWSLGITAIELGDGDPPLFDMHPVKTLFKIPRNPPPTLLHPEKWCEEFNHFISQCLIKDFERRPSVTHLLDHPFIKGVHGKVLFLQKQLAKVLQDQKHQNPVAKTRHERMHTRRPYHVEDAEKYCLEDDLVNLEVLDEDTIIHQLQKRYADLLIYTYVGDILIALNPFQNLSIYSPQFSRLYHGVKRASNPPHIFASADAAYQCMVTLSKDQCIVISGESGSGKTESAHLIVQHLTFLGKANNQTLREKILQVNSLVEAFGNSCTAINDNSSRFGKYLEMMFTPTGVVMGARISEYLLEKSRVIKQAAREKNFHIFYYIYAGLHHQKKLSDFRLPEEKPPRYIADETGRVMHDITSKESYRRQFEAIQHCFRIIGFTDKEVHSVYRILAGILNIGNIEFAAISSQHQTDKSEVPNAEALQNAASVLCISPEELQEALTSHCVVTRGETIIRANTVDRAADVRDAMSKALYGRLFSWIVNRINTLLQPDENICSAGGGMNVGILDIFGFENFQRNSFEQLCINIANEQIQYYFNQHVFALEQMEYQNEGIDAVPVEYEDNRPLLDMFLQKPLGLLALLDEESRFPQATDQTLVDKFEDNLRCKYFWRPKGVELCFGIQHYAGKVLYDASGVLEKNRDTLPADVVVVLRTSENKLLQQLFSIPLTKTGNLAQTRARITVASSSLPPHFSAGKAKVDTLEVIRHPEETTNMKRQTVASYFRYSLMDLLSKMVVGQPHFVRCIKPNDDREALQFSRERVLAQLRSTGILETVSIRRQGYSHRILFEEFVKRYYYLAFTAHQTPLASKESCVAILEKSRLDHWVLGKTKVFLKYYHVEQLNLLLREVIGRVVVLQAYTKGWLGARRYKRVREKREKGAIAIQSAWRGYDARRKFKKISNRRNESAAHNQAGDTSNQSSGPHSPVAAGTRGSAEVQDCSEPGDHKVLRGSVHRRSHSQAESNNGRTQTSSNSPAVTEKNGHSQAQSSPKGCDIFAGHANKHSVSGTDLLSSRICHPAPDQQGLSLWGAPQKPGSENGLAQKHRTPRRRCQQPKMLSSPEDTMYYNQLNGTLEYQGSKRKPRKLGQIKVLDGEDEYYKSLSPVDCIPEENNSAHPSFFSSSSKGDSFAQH
Method in brief: as §1

[5] = target: T5, scanMAX Kinase assay panel (Homo sapiens, UniProt P49336); details: CDK8; 1 uM; read-out: Percent Control (%)
T5 construct: purchased DiscoverX
Method in brief: as §1

[6] = target: T6, scanMAX Kinase assay panel (Homo sapiens, UniProt Q2M2I8); details: AAK1; 1 uM; read-out: Percent Control (%)
T6 construct: purchased DiscoverX
Method in brief: as §1

[7] = target: T7, scanMAX Kinase assay panel (Homo sapiens, UniProt P35968); details: VEGFR2; 1 uM; read-out: Percent Control (%)
T7 construct: purchased DiscoverX
Method in brief: as §1

[8] = target: T8, scanMAX Kinase assay panel (Homo sapiens, UniProt Q9H4B4); details: PLK3; 1 uM; read-out: Percent Control (%)
T8 construct: purchased DiscoverX
Method in brief: as §1

T6 sequence (Q2M2I8 whole entry): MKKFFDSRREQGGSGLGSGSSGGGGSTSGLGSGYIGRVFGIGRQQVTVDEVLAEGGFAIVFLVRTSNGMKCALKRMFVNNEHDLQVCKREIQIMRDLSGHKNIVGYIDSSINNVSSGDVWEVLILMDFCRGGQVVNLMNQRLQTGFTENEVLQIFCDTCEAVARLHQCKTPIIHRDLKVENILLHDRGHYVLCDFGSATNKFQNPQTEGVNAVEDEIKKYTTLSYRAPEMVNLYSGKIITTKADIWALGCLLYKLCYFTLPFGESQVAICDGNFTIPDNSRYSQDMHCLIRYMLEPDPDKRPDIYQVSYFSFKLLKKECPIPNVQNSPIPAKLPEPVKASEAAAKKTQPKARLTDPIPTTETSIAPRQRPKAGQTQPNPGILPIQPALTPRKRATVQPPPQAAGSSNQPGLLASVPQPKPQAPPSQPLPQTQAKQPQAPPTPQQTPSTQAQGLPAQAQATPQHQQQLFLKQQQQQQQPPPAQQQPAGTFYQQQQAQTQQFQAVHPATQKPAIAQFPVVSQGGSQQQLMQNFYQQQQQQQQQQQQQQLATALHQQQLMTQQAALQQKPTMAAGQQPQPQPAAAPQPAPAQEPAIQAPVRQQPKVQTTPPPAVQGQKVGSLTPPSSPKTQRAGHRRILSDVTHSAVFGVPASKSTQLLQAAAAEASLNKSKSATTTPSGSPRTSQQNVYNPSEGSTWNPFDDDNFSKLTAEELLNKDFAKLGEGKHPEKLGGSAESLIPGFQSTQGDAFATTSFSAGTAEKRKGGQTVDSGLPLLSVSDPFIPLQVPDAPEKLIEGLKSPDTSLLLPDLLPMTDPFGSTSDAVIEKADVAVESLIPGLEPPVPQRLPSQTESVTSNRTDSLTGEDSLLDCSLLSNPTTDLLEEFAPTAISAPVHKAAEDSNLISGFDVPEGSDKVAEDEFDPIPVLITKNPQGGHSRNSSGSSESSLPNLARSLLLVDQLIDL
T5 sequence (P49336 whole entry): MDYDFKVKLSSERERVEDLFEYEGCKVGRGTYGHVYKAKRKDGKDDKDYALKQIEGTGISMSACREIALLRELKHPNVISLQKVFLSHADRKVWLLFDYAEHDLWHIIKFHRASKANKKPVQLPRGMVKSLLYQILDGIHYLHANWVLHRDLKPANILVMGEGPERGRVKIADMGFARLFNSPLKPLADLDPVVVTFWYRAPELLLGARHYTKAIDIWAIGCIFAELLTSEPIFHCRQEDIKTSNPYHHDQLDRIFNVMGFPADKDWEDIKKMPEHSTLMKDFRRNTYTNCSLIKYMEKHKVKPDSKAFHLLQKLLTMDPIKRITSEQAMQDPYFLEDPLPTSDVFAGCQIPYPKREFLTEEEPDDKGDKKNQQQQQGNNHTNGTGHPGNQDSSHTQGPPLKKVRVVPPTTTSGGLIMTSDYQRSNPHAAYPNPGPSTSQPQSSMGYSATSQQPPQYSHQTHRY
T8 sequence (Q9H4B4 whole entry): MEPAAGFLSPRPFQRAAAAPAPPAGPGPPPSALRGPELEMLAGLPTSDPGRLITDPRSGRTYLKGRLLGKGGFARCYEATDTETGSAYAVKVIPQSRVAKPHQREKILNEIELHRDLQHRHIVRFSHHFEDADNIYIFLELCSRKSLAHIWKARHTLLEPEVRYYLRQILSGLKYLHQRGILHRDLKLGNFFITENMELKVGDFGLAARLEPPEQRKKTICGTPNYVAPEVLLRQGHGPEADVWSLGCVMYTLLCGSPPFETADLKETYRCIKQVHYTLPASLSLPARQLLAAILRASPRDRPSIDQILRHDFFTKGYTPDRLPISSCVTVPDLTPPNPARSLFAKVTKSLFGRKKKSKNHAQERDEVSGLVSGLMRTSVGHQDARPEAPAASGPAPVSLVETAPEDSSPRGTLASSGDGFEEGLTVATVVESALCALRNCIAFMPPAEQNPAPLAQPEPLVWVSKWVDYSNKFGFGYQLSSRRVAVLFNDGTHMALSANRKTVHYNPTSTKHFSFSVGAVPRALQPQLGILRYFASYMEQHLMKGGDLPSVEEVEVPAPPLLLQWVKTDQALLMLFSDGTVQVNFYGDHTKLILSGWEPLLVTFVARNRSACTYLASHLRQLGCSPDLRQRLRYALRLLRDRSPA
T2 sequence (Q9UIK4 whole entry): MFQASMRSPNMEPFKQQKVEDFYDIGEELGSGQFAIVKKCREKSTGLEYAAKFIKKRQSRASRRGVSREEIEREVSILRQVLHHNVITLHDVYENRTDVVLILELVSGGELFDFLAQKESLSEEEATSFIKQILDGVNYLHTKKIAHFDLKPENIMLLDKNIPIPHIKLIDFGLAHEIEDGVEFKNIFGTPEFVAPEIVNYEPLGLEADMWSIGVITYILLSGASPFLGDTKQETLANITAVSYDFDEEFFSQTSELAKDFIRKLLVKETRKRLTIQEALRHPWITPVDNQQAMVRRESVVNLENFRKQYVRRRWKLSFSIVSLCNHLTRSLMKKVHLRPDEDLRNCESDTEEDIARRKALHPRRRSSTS
T7 sequence (P35968 20-1356): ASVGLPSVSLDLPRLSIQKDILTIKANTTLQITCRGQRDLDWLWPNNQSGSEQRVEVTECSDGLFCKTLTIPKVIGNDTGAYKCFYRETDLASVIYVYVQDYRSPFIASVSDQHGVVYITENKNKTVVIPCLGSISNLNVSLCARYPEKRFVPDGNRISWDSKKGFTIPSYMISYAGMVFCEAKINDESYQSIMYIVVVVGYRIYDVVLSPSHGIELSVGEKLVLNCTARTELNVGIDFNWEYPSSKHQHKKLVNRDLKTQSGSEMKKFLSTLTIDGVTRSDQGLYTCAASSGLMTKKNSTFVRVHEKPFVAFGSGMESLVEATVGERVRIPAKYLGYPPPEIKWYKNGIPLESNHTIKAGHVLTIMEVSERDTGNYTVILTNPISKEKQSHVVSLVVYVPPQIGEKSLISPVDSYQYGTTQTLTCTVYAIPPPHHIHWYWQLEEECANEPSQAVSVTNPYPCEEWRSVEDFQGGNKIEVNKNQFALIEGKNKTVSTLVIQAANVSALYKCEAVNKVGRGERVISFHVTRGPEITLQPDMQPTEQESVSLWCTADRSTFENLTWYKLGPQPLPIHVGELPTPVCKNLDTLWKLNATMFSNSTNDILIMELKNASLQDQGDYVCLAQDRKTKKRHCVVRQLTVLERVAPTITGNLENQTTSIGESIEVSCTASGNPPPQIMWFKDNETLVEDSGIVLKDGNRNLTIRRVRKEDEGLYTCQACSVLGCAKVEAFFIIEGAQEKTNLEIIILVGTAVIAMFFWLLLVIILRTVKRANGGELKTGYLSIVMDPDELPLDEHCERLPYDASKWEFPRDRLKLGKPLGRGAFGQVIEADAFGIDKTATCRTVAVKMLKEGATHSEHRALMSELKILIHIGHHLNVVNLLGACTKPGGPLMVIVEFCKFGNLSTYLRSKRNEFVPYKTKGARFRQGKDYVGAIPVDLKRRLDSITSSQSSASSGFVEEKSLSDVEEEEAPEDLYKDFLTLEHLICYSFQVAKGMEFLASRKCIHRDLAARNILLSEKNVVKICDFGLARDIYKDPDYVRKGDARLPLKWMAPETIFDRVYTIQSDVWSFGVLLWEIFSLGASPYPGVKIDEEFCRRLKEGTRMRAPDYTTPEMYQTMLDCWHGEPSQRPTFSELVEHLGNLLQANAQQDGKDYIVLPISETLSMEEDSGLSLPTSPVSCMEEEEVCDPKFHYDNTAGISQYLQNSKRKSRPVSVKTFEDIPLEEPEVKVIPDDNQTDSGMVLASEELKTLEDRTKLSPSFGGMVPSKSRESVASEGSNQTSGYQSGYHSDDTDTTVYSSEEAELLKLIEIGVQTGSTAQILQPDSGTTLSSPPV
T1 sequence (Q9BWU1 whole entry): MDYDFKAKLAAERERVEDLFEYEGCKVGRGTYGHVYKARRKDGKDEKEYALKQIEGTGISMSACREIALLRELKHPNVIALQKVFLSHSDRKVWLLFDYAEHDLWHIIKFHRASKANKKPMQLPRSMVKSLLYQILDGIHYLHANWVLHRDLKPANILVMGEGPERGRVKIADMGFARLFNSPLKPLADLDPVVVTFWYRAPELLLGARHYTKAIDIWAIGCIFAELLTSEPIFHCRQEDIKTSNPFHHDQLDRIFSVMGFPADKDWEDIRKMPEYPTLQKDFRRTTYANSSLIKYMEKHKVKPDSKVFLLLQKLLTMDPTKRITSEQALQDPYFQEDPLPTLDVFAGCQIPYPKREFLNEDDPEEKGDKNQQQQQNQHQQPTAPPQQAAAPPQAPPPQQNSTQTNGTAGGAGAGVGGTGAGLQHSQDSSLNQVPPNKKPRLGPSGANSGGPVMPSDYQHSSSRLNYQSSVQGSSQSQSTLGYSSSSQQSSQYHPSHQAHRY

Structure (SMILES)	remaining binding at 1 µM [1] [%]	remaining binding at 1 µM [2] [%]	remaining binding at 1 µM [3] [%]	remaining binding at 1 µM [4] [%]	remaining binding at 1 µM [5] [%]	remaining binding at 1 µM [6] [%]	remaining binding at 1 µM [7] [%]	remaining binding at 1 µM [8] [%]
Cc1ccc(C(=O)Nc2ccc(CN3CCN(C)CC3)c(C(F)(F)F)c2)cc1C#Cc1cnc2c(Nc3cnn(C)c3)cccn12 [Example 1, 4-methyl-3-((8-((1-methyl-1H-pyrazol-4-yl)amino)imidazo[1,2-a]pyridin-3-yl)ethynyl)-N-(4-((4-methylpiperazin-1-yl)methyl)-3-(trifluoromethyl)phenyl)benzamide]	0	82	80	35	4	64	5	77
Cc1cn(-c2cc(NC(=O)c3ccc(C)c(C#Cc4cnc5c(Nc6cnn(C)c6)cccn45)c3)cc(C(F)(F)F)c2)cn1 [Example 12, 4-methyl-N-(3-(4-methyl-1H-imidazol-1-yl)-5-(trifluoromethyl)phenyl)-3-((8-((1-methyl-1H-pyrazol-4-yl)amino)imidazo[1,2-a]pyridin-3-yl)ethynyl)benzamide]	19	97	100	81	31	85	55	100
Cc1ccc(NC(=O)C2(C(=O)Nc3ccc(F)cc3)CC2)cc1C#Cc1cnc2c(Nc3cnn(C(C)C)c3)cccn12 [Example 78]	100	100	85	92	100	100	63	92
